“Also recorded” adds a separate entry of the source.
Experiments:
[1] = tested on: healthy adults; conditions: in vivo
Source text: Study Overview and Ethics. The study used a randomized, placebo-controlled, single-ascending dose (SAD) and multiple-ascending dose (MAD) design (FIG. 2). […] Dose escalation was to be stopped when this range was achieved, or when a non-tolerated dose was identified, if earlier.
Single-ascending dose (SAD) cohorts. The SAD portion of the study used a randomized, double-blind, placebo-controlled, sequential, escalating-dose design, in which participants received single-ascending oral doses of the study drug. Seven cohorts were dosed in sequence (FIG. 2).
Recommendations regarding dose escalation in the SAD cohorts—and in the MAD cohorts described below—were made by the treating investigator (who was blinded to treatment group) and endorsed or not by the Dose Level Review Committee (DLRC), who were unblinded. […] Criteria for escalation included that no more than 2 participants in a dose group developed an LVEF <50% and no individual developed an LVEF <45%.
Multiple-ascending dose (MAD) cohorts. The MAD cohorts also used a randomized, double-blind, placebo-controlled, sequential design.
Safety and tolerability. Safety was assessed by the incidence of adverse events (AEs) and by incidence of reduced LVEF. Treatment-emergent AEs (TEAE) were defined as AEs that began or increased after study drug administration. All AEs were coded using the Medical Dictionary for Regulatory Activities version 21.1 and graded using the National Cancer Institute Common Terminology Criteria for AEs (version 4.03) 5-point severity scale. Each AE was judged as either related or unrelated to the study drug by the treating investigator. Clinical laboratory tests were obtained at regular intervals in all cohorts.
For safety monitoring, participants in all cohorts had periodic echocardiograms, which were assessed by a cardiologist. In the SAD and MAD cohorts, echocardiograms were also reviewed by an echocardiography core laboratory for PD assessments, as described below. In addition, participants in all cohorts were monitored with continuous 12-lead ECG recording using Holter monitors. For safety monitoring, a single 12-lead ECG was extracted at screening, pre-dose, and periodically throughout follow-up, and interpreted by the investigator. In the SAD, MAD, and CYP2D6-PM cohorts, cardiodynamic ECGs (triplicate 10-second, 12-lead ECG recordings) were obtained prior to the corresponding PK blood and ECG intervals quantitated by qualified readers.

[2] = tested on: patients with symptomatic oHCM; test: Open-label extension: SRT eligibility per guideline criteria; assay type: in vivo, human; conditions: Week 48 visit; 19 patients (42%) eligible at baseline
Source text: There was a substantial reduction in peak resting and Valsalva LVOT-G from baseline to week 48 [ΔResting mean: −32 mmHg (±28); Δ Valsalva mean: −47 mmHg (±28)] (see FIG. 53 and FIG. 54, respectively). […] There was substantial improvement in NYHA class: by week 48, 88% of patients experienced ≥1 NYHA FC improvement while none had NYHA FC worsening (see FIG. 56). At baseline, 19 patients (42%) were eligible for SRT per guideline criteria of symptoms and hemodynamics, despite receiving beta-blocker, (78%) calcium channel blocker (18%), and disopyramide (22%). […] NT pro-BNP decreased from baseline to Week 48 (from a geometric mean [CV %] of 651.0 [160.4] to 111.1 [93.4] pg/mL), representing a […] reduction from baseline (p<0.0001).

[3] = target: cardiac myosin (Homo sapiens, UniProt P12883); test: Preclinical models: myocardial contractility; conditions: preclinically in vitro and in vivo
Chain of cardiac myosin (P12883 whole entry): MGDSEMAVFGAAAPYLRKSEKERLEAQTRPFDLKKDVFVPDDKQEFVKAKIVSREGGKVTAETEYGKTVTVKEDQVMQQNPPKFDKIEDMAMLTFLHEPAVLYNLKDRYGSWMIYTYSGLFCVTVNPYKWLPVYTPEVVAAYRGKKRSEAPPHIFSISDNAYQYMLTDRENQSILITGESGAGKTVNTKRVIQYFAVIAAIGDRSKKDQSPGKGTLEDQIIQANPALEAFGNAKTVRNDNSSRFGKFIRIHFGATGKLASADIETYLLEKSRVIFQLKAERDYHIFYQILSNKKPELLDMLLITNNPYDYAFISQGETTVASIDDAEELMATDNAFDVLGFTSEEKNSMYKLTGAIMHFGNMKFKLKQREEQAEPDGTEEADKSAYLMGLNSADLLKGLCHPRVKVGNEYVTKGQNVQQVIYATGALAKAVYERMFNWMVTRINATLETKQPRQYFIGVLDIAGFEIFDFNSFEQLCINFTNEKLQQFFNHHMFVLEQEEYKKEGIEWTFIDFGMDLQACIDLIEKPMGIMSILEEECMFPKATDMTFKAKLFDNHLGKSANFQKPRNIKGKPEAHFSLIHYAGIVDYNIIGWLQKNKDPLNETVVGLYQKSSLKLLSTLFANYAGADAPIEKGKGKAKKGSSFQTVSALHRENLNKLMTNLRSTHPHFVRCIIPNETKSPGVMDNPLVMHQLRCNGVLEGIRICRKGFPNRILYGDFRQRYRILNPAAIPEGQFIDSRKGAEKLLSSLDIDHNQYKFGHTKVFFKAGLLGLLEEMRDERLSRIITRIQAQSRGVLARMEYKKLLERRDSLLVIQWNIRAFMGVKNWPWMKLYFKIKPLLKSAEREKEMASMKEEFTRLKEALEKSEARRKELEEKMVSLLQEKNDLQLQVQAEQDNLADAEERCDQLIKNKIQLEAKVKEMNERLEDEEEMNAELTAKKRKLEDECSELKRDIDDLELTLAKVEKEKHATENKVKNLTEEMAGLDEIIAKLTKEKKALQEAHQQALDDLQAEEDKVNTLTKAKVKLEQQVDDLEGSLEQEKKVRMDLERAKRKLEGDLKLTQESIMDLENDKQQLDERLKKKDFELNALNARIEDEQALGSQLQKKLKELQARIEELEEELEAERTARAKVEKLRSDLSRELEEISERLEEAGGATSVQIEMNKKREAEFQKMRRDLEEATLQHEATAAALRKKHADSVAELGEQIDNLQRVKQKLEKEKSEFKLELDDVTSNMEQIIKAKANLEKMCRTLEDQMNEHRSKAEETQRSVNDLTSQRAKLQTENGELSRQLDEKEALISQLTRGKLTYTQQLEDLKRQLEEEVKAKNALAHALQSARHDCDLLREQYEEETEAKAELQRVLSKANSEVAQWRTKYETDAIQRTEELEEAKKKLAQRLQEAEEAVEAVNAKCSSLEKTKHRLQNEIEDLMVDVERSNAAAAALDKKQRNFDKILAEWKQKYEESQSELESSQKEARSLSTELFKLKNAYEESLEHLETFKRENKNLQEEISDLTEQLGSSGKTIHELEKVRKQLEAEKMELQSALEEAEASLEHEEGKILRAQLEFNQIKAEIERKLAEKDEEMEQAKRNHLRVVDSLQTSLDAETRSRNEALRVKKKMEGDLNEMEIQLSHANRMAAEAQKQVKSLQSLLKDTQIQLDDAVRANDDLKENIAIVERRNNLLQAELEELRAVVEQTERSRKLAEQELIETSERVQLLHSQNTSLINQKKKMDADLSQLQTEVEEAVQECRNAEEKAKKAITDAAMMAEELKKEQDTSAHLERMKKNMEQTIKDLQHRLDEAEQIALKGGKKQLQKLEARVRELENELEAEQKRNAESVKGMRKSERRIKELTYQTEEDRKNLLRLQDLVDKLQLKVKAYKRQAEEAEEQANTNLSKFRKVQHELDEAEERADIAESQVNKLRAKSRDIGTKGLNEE
Chain of cardiac myosin (P08590 whole entry partner): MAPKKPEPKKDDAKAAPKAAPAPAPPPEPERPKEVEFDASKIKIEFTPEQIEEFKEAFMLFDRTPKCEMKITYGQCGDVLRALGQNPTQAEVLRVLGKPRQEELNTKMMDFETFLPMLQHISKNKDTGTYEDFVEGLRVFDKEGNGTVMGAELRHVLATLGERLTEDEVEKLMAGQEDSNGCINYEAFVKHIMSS
Chain of cardiac myosin (P10916 whole entry partner): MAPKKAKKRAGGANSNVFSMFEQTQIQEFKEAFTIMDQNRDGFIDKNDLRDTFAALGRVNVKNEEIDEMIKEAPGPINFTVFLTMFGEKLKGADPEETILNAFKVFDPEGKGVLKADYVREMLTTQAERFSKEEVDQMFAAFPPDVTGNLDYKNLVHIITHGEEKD
Source text: This mechanism of action may be therapeutically effective in conditions characterized by excessive hypercontractility, such as HCM (e.g., obstructive HCM, also referred to as oHCM).

[4] = tested on: patients with symptomatic oHCM; test: Open-label extension: echocardiography (LVOT-G, LVEF); assay type: in vivo, human
Protocol: Patients were up-titrated to Dose 2 if either of the following conditions were met on echocardiography: (1) resting LVOT-G ≥30 mmHg and the biplane LVEF ≥50%; or (2) resting LVOT-G <30 mmHg, post-Valsalva LVOT-G ≥50 mmHg, and the biplane LVEF ≥50%. […] If LVEF was <50%, treatment was discontinued. If LVEF was <40%, treatment is interrupted.
Ambulatory cardiac monitoring is performed on weeks 48, 96, 144, 192 and 240. Cardiac magnetic resonance is monitored at weeks 48, 144 and 240. (See FIG. 26).
At Week 2, each patient has a truncated echocardiogram following administration of their dose. Patients are up-titrated to Dose 2 if post-Valsalva LVOT-G ≥30 mmHg, and the biplane LVEF ≥55%. […] If LVEF is <50%, treatment is discontinued.
At Weeks 4, 6, 12, and every 12 weeks thereafter, each patient has an echocardiogram or truncated echocardiogram following administration of their dose (a truncated echocardiogram at weeks 4 and 6; and an echocardiogram at week 12 and every 12 weeks thereafter) to determine whether additional dose titration is needed (see Table 21 and Table 22). Patient reported outcomes, laboratory assessments, measurements of NT-proBNP, hs-cTnI, and other biomarkers are performed at week 12 and every 12 weeks thereafter. Ambulatory cardiac monitoring is performed on weeks 48, 96, 144, 192 and 240 Cardiac magnetic resonance is monitored at weeks 48, 144 and 240. If a patient develops an LVEF <40% after the Week 2 visit, a repeat echocardiogram may be performed to confirm the initial finding (preferably within 24 hours). If the echocardiography findings are confirmed, the patient will undergo a ≥2-day drug holiday.
Echocardiographic parameters to be measured at least include the left ventricular parameters (resting left ventricular outflow tract pressure gradient (LVOT-G), post-Valsalva LVOT-G, LVEF, LVFS, left ventricular strain, left ventricular end diastolic volume (LVEDV), left ventricular end systolic volume (LVESV), LV Stroke Volume), septal and free wall thickness, E/e′, E/A, LA volume.

[5] = tested on: patients with symptomatic obstructive HCM (oHCM); test: Phase 2 trial: safety and tolerability
Source text: Seventeen investigative sites in North America and Europe screened for patients to enroll in Cohorts 1 and 2.
The first two cohorts (Cohort 1 and Cohort 2) excluded patients receiving disopyramide. Cohort 3 included patients receiving disopyramide. […] Overall, the treatment duration was 10 weeks with a 4-week follow-up period after the last dose.

[6] = Cohort 1, 21 randomized 2:1 aficamten (5, 10, 15 mg once daily) or placebo, 10 weeks
[7] = Cohort 2, 20 randomized 2:1 aficamten (10, 20, 30 mg once daily) or placebo, 10 weeks
[8] = Cohort 3, 13 patients, aficamten (5, 10, 15 mg once daily) on top of disopyramide, 10 weeks
[9] = Total, Cohorts 1-3, 54 patients

Structure (SMILES): CCc1nc(-c2ccc3c(c2)CC[C@H]3NC(=O)c2cnn(C)c2)no1 [aficamten, (R)—N-(5-(5-ethyl-1,2,4-oxadiazol-3-yl)-2,3-dihydro-1H-inden-1-yl)-1-methyl-1H-pyrazole-4-carboxamide]
- participants with echocardiogram-related AEs of decreased ejection fraction <45% ([1]; human): 3 participants
- overall safety and tolerability [1]: safe and well tolerated
- post-dose LVEF of 1 participant with LVEF <50% [1]: 46.2%
- serum chemistry, hematology, urinalysis findings [1]: No clinically significant serum chemistry, hematology, or urinalysis findings
- patients eligible for SRT per guideline criteria [2]: none of these patients met these criteria; also recorded: eliminated SRT eligibility in all patients
- effect on left ventricular contractility [3]: reduced measures of left ventricular contractility
- reduction in LVOT gradients over time ([4]; Weeks 2-24, site reads, Example 3a): significant and sustained reductions in LVOT gradients
- Δ LVEF ([4]; baseline to week 48): −5±3%
- Δ Valsalva LVOT-G mean ([4]; baseline to week 48): −47 mmHg
- ΔResting LVOT-G mean ([4]; baseline to week 48): −32 mmHg
- reductions in LVEF over time ([4]; through Week 24, Example 3a): minimal and stable reductions in LVEF
- patients with LVEF <50% ([5]; Cohort 1): No patients
- Patients with TEAEs leading to drug interruption or termination [5, 6]: 0 N
- Patients with fatal TEAEs [5, 6]: 0 N
- TEAE of LVEF <50% (Core Lab) [5, 6]: 0 N
- patients with transient LVEF reduction to <50% requiring down titration ([5]; Cohort 2, 20 mg): one patient
- Patients with TEAEs leading to drug interruption or termination [5, 7]: 0 N
- Patients with TESAEs [5, 7]: 0 N
- Patients with fatal TEAEs [5, 7]: 0 N
- changes in QTc interval or vital signs ([5]; Cohort 3): no significant changes in QTc interval, or vital signs
- moderate adverse events recorded ([5]; Cohort 3): six
- patients with LVEF <50% ([5]; Cohort 3): No patients experienced LVEF <50%
- serious adverse events, dose interruptions, discontinuations ([5]; Cohort 3): no serious adverse events attributed to treatment; also recorded: no dose interruptions, treatment discontinuations, or serious adverse events
- Patients with TEAEs leading to drug interruption or termination [5, 8]: 0 N
- Patients with TESAEs [5, 8]: 0 N
- Patients with fatal TEAEs [5, 8]: 0 N
- TEAE of LVEF <50% (Core Lab) [5, 8]: 0 N
- adverse event of asymptomatic atrial fibrillation ([5]; Cohort 3, patient with known prior history): One
- interruptions or discontinuations of treatment ([5]; Cohorts 1 and 2): no treatment interruptions; also recorded: No interruptions or discontinuations
- new cases of atrial fibrillation ([5]; Cohorts 1 and 2): No new cases of atrial fibrillation
- severity of adverse events ([5]; Cohorts 1 and 2): mild or moderate
- treatment related serious adverse events ([5]; Cohorts 1 and 2): No serious adverse events were attributed to aficamten; also recorded: no treatment related serious adverse events
- reversibility of LVEF effect after end of treatment ([5]; Phase 2 cohorts): returned towards baseline within two weeks after the end of treatment; also recorded: returned to baseline after the 2-week washout
- Patients with TEAEs leading to drug interruption or termination [5, 9]: 0 N
- Patients with fatal TEAEs [5, 9]: 0 N
